{"source": "patent US9610370B2", "about": "“Compositions and methods for tumor imaging and targeting by a class of organic heptamethine cyanine dyes that possess dual nuclear and near-infrared properties” (University of Virginia Patent Foundation, priority 2011, dated 2017)", "key": {"[1]": {"system": "MCF-7 xenograft tumors", "assay": "Nuclear imaging (microPET/microSPECT) of mice with MCF-7 xenograft tumors", "format": "in vivo", "settings": "for visualization of breast tumors in maximal projection images: PC-002 at 48 h post ip, 18F-FDG at 1.5 h post iv, same mouse, FIG. 4", "method": "FIG. 1 depicts the SPECT/CT image of PC-001 with a nude mouse model of a human breast cancer MCF-7 xenograft in accordance with various embodiments of the present invention. […] SPECT/CT scan was performed at 20 h post injection.\nFIG. 3 depicts the transverse PET images of PC-002 at 24 and 48 h post ip injection and ^18F-FDG at 1.5 h post iv injection of the same mouse (20 g) harbored with MCF-7 tumor xenografts in accordance with various embodiments of the present invention.\nFIG. 4 depicts the comparison of maximal projection images (MPIs) of PC-002 at 48 h post ip injection and ^18F-FDG at 1.5 h post iv injection of the same mouse (20 g) harbored with MCF-7 tumor xenografts in accordance with various embodiments of the present invention.\nFIG. 8 depicts the transverse PET images of PC-003 at 48 and 72 h post ip injection and with the same mouse (20 g) with MCF-7 tumor xenografts in accordance with various embodiments of the present invention.\nPC-001, PC-002, and PC-003 were evaluated as nuclear imaging probe using mice with MCF-7 xenograft tumors. […] PC-002/PET images were compared with FDG/PET with same mice."}, "[2]": {"system": "human and mouse cancer cell lines in vitro and tumor xenografts in vivo", "settings": "cited from earlier work"}, "[3]": {"system": "OATP", "settings": "cited from earlier work"}, "[4]": {"system": "MCF-7 xenografts", "assay": "NIR fluorescence imaging, in vivo and ex vivo, of mice with MCF-7 xenografts", "settings": "dissected tumor, ex vivo, FIG. 7", "method": "FIG. 2 depicts the NIR fluorescence image of PC-002 with a nude mouse (20 g) with MCF-7 tumor xenografts in accordance with various embodiments of the present invention. PC-002 (10 nmol) in saline (200 ul) was injected via tail vein. The live fluorescence images were performed at time points (as indicated) post injection using an IVIS Spectrum device (Ex/Em=745/800 nm).\nFIG. 7 depicts the correlation of PC-002 uptake and ex vivo images in accordance with various embodiments of the present invention. A MCF-7 xenograft tumor was dissected and cut into two halves.\nThe optical imaging property of “cold” counterpart of PC-002, comprising stable copper isotope, was evaluated with mice models with MCF-7, C4-2, and ARCaPM tumors. In mice with MCF-7 xenografts, tumor uptake of PC-002 was discernable at 3 hrs post injection and contrast of tumor and normal tissues reached most profound at 24 hrs post injection (FIG. 2).\nAt 24 hrs post PC-002 injection, a MCF-7 xenograft tumor was dissected and cut into two halves. The viable sections of the tumor in white, right photograph matched with PC-002 fluorescence distribution performed using a Caliper Spectrum device (FIG. 7). The cancer cells in the microscopic image of the H/E stained tumor slice were also overlapped with PC-002 NIR fluorescence of the same tumor slice."}, "[5]": {"assay": "Blood clearance in nude mice", "settings": "mouse, in vivo", "method": "FIG. 6 depicts the blood clearance curve of PC-002 in nude mice in accordance with various embodiments of the present invention. The T1/2 is 256.9±13.2 min. (N=3).\nThe half-life (T1/2) of PC-001, PC-002, and PC-003 is 3, 4.3, and 3 hours, respectively. The long blood circulation times results in good images taken at later hours; for example, 24 to 72 hrs post injection."}, "[6]": {"system": "subcutaneous C4-2 or tibial ARCaPM tumors", "assay": "Ex vivo fluorescent imaging and frozen-section microscopy of harvested tumors and soft tissues", "format": "in vivo, mice", "method": "FIG. 11 depicts the harvested bone ARCaPM and subcutaneous C4-2 human prostate tumors embedded with OCT at −25° C. and subjected to frozen sectioning using Cryostat in accordance with various embodiments of the present invention. The frozen sections were fixed and aqueously mounted and imaged using fluorescent microscopy (200× magnification). Note the Dual Nuclear/NIR Agent was actively uptaken into tumor cells.\nThe PC-002 (2 nmole) was intravenously injected into mouse with either subcutaneous C4-2 or tibial ARCaPM tumors and the mice were subjected to fluorescent imaging using the Xenogen Imaging System at the interval of 1 h, 2 h, 4 h, 8 h, 10 h, 12 h, 24 h and 48 h after the dye injection. The fluorescence signal was found accumulating in subcutaneous C4-2 tumor beginning at 24 hr while the signal was found at 2 hr in the in intratibial ARCaPM tumor in mouse skeleton (FIG. 9).\nThe harvested bone (ARCaPM) and subcutaneous (C4-2) tumors were embedded with OCT at −25° C. and subjected to frozen sectioning using Cryostat."}, "[7]": {"system": "xenograft prostate tumors", "assay": "PET imaging of xenograft prostate tumors", "format": "in vivo, mice", "settings": "FIG. 16", "text": "FIGS. 16A-D illustrate PET imaging of xenograft prostate tumors.\nIn the past, several attractive PET probes, such as ^18F-2-fluoro-2-deoxy-D-glucose (18 F-FDG) or 111In-tagged antibodies, and more recently the development of smaller sized versions of antibodies such as diabodies and minibodies recognizing PSMA and PSCA, have been proposed to detect PCa; but because of their relative large molecular weight as antibodies, potential host immune response to foreign antibodies, and the lack of Pca specificity using 18F-FDG, application of PET/SPECT probe to detect PCa has not been successful. […] As a small molecule, PC-002 has the advantages of being non-immunogenic, easier to purify and to scale-up, and higher stability for storage and shipping. Because of suboptimal NIR dye signal penetration through deep tissues, we chemically synthesized PC-002, a lead PET 64Cu-DOTA-NIR dye30, to facilitate future translation to the clinic. […] Based on this highly promising result, 64Cu-DOTA-based NIR dye for imaging PCa bone and soft tissue metastases can be used concurrently with 99 mTc-MDP to detect reactive bone activity. For example, this strategy can be used in the robust mouse models of PCa metastasis developed by our laboratory. […]"}}, "note": "Read-outs that look alike come from different tables or passages of the source.", "data": [{"smiles": "OC[C@H]1OC(O)[C@H]([18F])[C@@H](O)[C@@H]1O", "note": "(stereo partly drawn) [FDG, 18F-2-fluoro-2-deoxy-D-glucose, reference compound]", "values": [{"measurement": "visualization of breast tumors in maximal projection images", "setting": "[1]", "result": "only barely seen"}]}, {"smiles": "CCCN1/C(=C/C=C2\\CCCC(/C=C/C3=[N+](CCC)c4ccccc4C3(C)C)=C2Cl)C(C)(C)c2ccccc21.[I-]", "note": "[IR-780]", "values": [{"measurement": "uptake and retention by cancer cell lines and tumor xenografts", "setting": "[2]", "result": "uptake and retention"}]}, {"smiles": "CC1(C)C(=CC=C2CCCC(C=CC3=[N+](CCCCS(=O)(=O)[O-])c4ccccc4C3(C)C)=C2Cl)N(CCCCS(=O)(=O)[O-])c2ccccc21.[Na+]", "note": "[IR783]", "values": [{"measurement": "uptake and retention by cancer cell lines and tumor xenografts", "setting": "[2]", "result": "uptake and retention"}]}, {"smiles": "O=C1OC(c2ccc(O)c(S(=O)(=O)O)c2)(c2ccc(O)c(S(=O)(=O)O)c2)c2c(Br)c(Br)c(Br)c(Br)c21", "note": "[BSP]", "values": [{"measurement": "effect on NIR dye uptake", "setting": "[3]", "result": "completely blocked"}]}, {"smiles": "CC1(C)C(/C=C/C2=C(Cl)C(=C/C=C3/N(CCCCCC(=O)NCCCCC(NC(=O)C[N+]45CC[N+]6(CC(=O)[O-])CC[N+]7(CC(=O)[O-])CC[N+](CC(=O)O)(CC4)[64Cu-2]765)C(=O)O)c4ccccc4C3(C)C)/CCC2)=[N+](CCCCCC(=O)O)c2ccccc21", "note": "(centres unmarked) [PC-002]", "values": [{"measurement": "association of NIR and PC-002 signals with tumor tissue type", "setting": "[4]", "result": "associated with viable and not necrotic tissues"}, {"measurement": "half-life", "setting": "[5]; half-life (T1/2), blood clearance", "result": 4.3, "unit": "h"}, {"measurement": "half-life", "setting": "[5]; nude mice, N=3, FIG. 6, read-out: blood clearance T1/2", "result": "4.28 ± 0.22", "unit": "h"}, {"measurement": "SUV of MCF-7 tumor relative to hind leg muscles", "setting": "[1]; FIG. 5", "result": 6, "unit": "times"}, {"measurement": "visualization of breast tumors in maximal projection images", "setting": "[1]", "result": "clearly visualized"}, {"measurement": "suitability as nuclear imaging probe", "setting": "[1]; microPET or microSPECT", "result": "suitable candidates for molecular imaging of cancer"}, {"measurement": "tumor contrast and selectivity compared with FDG/PET", "setting": "[1]; same mice, FIGS. 3 and 4", "result": "higher tumor contrast and selectivity than FDG"}, {"measurement": "uptake in frozen sections, fluorescent microscopy", "setting": "[6]; 200× magnification, FIG. 11", "result": "selectively uptaken in cancer cells"}, {"measurement": "uptake and retention, ex vivo fluorescent imaging", "setting": "[6]; harvested at 24 hrs post injection, FIG. 10", "result": "in tumor only"}, {"measurement": "selectivity for tumor xenografts", "setting": "[7]", "result": "remarkable selectivity"}]}]}
